Reference: patent publication US6335357B1, “Pyrazole derivatives, process for preparing the same, intermediates, and pest control agent containing the same as active ingredient” (Mitsubishi Chemical Corporation, priority 1997, dated 2002)

Columns and labels:
Format in all cases: in vivo
[1] = test system: Nilaparvata lugens; test: Insecticidal effect on larvae of Nilaparvata lugens (Test Example 1); settings: 500 ppm; 4th instar larvae on rice seedling, sprayed emulsion; after 5 days at 25° C.
Method: Insecticidal Effect on Larvae of Nilaparvata lugens:
A rice seedling was planted in a glass cylinder (inner diameter: 3 cm; length: 17 cm), and five 4th instar larvae of Nilaparvata lugens were set free therein. An agricultural and horticultural insecticide was prepared in accordance with Formulation Example 3 and diluted with water, and 0.5 ml of the resulting emulsion was sprayed in the cylinder by means of a spray tower (manufactured by Mizuho Rika) (duplicates at a concentration). The cylinder was kept in a thermostat at 25° C., and the mortality and agony of the larvae were examined after 5 days from the treatment to obtain a death rate (%) taking an agonizing insect as a ½ dead insect.

[2] = test system: Plutella xylostella; test: Insecticidal effect on larvae of Plutella xylostella (Test Example 2); settings: 500 ppm; 3-instar larvae, cabbage leaf disc soaked in suspension; after 4 days at 25° C.
Method: Insecticideal Effect on Larvae of Plutella xylostella:
A disc (6 cm in diameter) cut out of a cabbage leaf was soaked in an aqueous suspension of the agricultural and horticultural insecticide prepared in accordance with Formulation Example 1 for 1 minute, air-dried, and placed in a plastic cup (inner diameter: 7 cm). Five 3-instar larvae of Plutella xylostella were set free in the cup (duplicates at a concentration). The cup was kept in a thermostat at 25° C., and the death and agony of the larvae were examined after 4 days from the treatment to obtain a death rate (%) taking an agonizing insect as a ½ dead insect. The results obtained are shown in Table 3 (the compound numbers in the Table below correspond to the numbers in Table 1).

[3] = test system: Spodoptera litura; test: Insecticidal effect on larvae of Spodoptera litura (Test Example 3); settings: 500 ppm; 3-instar larvae, cabbage leaf disc soaked in suspension; after 5 days at 25° C.
Method: Insecticidal Effect on Larvae of Spodoptera litura:
A disc (6 cm in diameter) cut out of a cabbage leaf was soaked in an aqueous suspension of an agricultural and horticultural insecticide prepared in accordance with Formulation Example 1 for 1 minute, air-dried, and placed in a plastic cup (inner diameter: 7 cm). Five 3-instar larvae of Spodoptera litura were set free in the cup (duplicates at a concentation). The cup was kept in a thermostat at 25° C., and the death and agony of the larvae were examined after 5 days from the treatment to obtain a death rate (%) taking an agonizing insect as a ½ dead insect. The results obtained are show in Table 4 (the compound numbers in the Table below correspond to the numbers in Table 1).

[4] = test system: Callosobruchus chinensis; test: Insecticidal effect on imagoes of Callosobruchus chinensis (Test Example 4); settings: 500 ppm, sprayed emulsion, after 4 days at 25° C.
Method: Insecticidal Effect on Imagoes of Callosobruchus chinensis:
Two adzuki beans were put in a glass cylinder (inner diameter: 3 cm; length: 15 cm), and 10 imagoes of Callosobruchus chinensis were set free therein. An agricultural and horticultural insecticide was prepared in accordance with Formulation Example 3 and diluted with water, and 0.3 ml of the resulting emulsion was sprayed in the glass cylinder by means of a spray tower (manufactured by Mizuho Rica) (duplicates at a concentration). The cylinder was kept in a thermostat at 25° C., and the mortality and agony of the larvea were examined after 4 days from the treatment to obtain a death rate (%) taking an agonizing insect as a ½ dead insect.

[5] = test system: Myzus persicae; test: Insecticidal effect on larvae of Myzus persicae (Test Example 5); settings: 500 ppm; Japanese radish leaves dipped in emulsion; 4th day after treatment at 25° C.
Method: Insecticidal Effect on Larvae of Myzus persicae:
Water was put in a screw bottle (volume: 10 ml), and a leafstalk of Japanese radish was placed therein and inoculated with 5 to 6 imagoes of Myzus persicae per leave. After the inoculation, the bottle was put in a glass cylinder (diameter: 3.5 cm; height: 15 cm) with a mesh cover, and the insects were let to proliferate in a thermostat kept at 25° C. for 3 days. […] The cylinder was maintained in the thermostat at 25° C., and the number of the insects on the leaves was counted on the 4th day after the treatment to obtain a death rate (%).

[6] = test system: Spodoptera litura; test: Low concentration test, Spodoptera litura (Test Example 6)
[7] = test system: Plutella xylostella; test: Low concentration test, Plutella xylostella (Test Example 6)
Text: Effects on the larvae of Plutella xylostella of compound Nos. 2 and 57 of the invention and, for comparison, the compound I described in an unexamined published Japanese patent application 63-316771 and the compounds II and III described in an unexamined published Japanese patent application 5-148240 were examined at varied concentrations. The results obtained are shown in Table 7 (the compound numbers in the Table correspond to the numbers in Table 1).

[8] = test system: Myzus persicae; test: Low concentration test, Myzus persicae (Test Example 6)
[9] = test system: CD-1 male mice; test: Single oral dose administration test in mice (acute toxicity, Test Example 7); settings: 300 mg/kg single oral dose in 0.5% CMC-Na, after 7 days
Method: Single Oral Dose Administration Test in Mice:
Acute toxicity (p.o.) compound No. 1 in mice was examined as follows. For comparison, compound IV disclosed in an unexamined published Japanese patent application 63-316771 was tested similarly.
Each test compound (300 mg) was suspended in 10 ml of a 0.5% CMC-Na aqueous solution. Five 6-week-old CD-1 male mice (available from Charles River) per group were forced to take an oral dose of 10 ml/kg of the suspension. The number of dead mice was counted after 7 days from the administration to obtain a death rate.

SMILES	Death Rate (%) [1] [%]	Death Rate (%) [2] [%]	Death Rate (%) [3] [%]	Death Rate (%) [4] [%]	Death Rate (%) Spodoptera litura ([6]; 12.5 ppm) [%]	Death Rate (%) Spodoptera litura ([6]; 50 ppm) [%]	Death Rate (%) Spodoptera litura ([6]; 200 ppm) [%]	Death Rate (%) Plutella xylostella ([7]; 0.2 ppm) [%]	Death Rate (%) Plutella xylostella ([7]; 0.8 ppm) [%]	Death Rate (%) Plutella xylostella ([7]; 3.1 ppm) [%]	Death Rate (%) Plutella xylostella ([7]; 12.5 ppm) [%]	Death Rate (%) Plutella xylostella ([7]; 50 ppm) [%]	Death Rate (%) Plutella xylostella ([7]; 200 ppm) [%]	Death Rate (%) Myzus persicae ([8]; 200 ppm) [%]	also measured
N#Cc1nn(-c2c(Cl)cc(C(F)(F)F)cc2Cl)c(NCc2ccncc2)c1SC(F)(F)F [Compound 1, 1-(2,6-Dichloro-4-trifluoromethylphenyl)-3-cyano-4-trifluoromethylsulfenyl-5-(4-pyridylmethylamino)pyrazole]	100	100	100	100	100	100	100	100	100	100	100	100	100	100	Death Rate (%) [5]: 100%; Death Rate (%) Spodoptera litura ([6]; 3.1 ppm): 95%; Death Rate (%) Plutella xylostella ([7]; 0.05 ppm): 95%; Death Rate (%) Myzus persicae ([8]; 12.5 ppm): 98%; Death Rate (%) Myzus persicae ([8]; 50 ppm): 100%
COc1cc(CNc2c(SC(F)(F)F)c(C#N)nn2-c2c(Cl)cc(C(F)(F)F)cc2Cl)ccc1O [Compound 2, 1-(2,6-Dichloro-4-trifluoromethylphenyl)-3-cyano-4-trifluoromethylsulfenyl-5-[(3-methoxy-4-hydroxyphenyl)methylamino]pyrazole]	100	100	100	100	–	–	–	–	–	–	–	–	–	–	Death Rate (%) [5]: 100%; Death Rate (%) [9]: 0%
CCCNc1c(SC(F)(F)F)c(C#N)nn1-c1c(Cl)cc(C(F)(F)F)cc1Cl [I]	–	–	–	–	50	100	100	20	85	100	100	100	100	50	Death Rate (%) Spodoptera litura ([6]; 3.1 ppm): 0%; Death Rate (%) Myzus persicae ([8]; 3.1 ppm): 0%; Death Rate (%) Myzus persicae ([8]; 12.5 ppm): 50%; Death Rate (%) Myzus persicae ([8]; 50 ppm): 60%
CC(C)Oc1ccc(CNc2c(SC(F)(F)F)c(C#N)nn2-c2c(Cl)cc(C(F)(F)F)cc2Cl)cc1 [Compound 8]	100	100	–	100	–	–	–	–	–	–	–	–	–	–	–
Cn1cccc1C=Nc1c(SC(F)(F)F)c(C#N)nn1-c1c(Cl)cc(C(F)(F)F)cc1Cl [III]	–	–	–	–	65	95	100	–	20	75	100	100	100	0	–
N#Cc1nn(-c2c(Cl)cc(C(F)(F)F)cc2Cl)c(N=Cc2ccncc2)c1SC(F)(F)F [II]	–	–	–	–	95	200	100	100	100	100	100	100	100	0	Death Rate (%) Spodoptera litura ([6]; 3.1 ppm): 60%; Death Rate (%) Plutella xylostella ([7]; 0.05 ppm): 80%
CC(C)(C)c1ccc(CNc2c(SC(F)(F)F)c(C#N)nn2-c2c(Cl)cc(C(F)(F)F)cc2Cl)cc1 [Compound 5]	100	–	–	100	–	–	–	–	–	–	–	–	–	–	–
N#Cc1nn(-c2c(Cl)cc(C(F)(F)F)cc2Cl)c(N)c1[S+]([O-])C(F)(F)F (stereo not shown) [IV, reference compound]	–	–	–	–	–	–	–	–	–	–	–	–	–	–	Death Rate (%) [9]: 80%
Cn1cccc1CNc1c(SC(F)(F)F)c(C#N)nn1-c1c(Cl)cc(C(F)(F)F)cc1Cl [Compound 57]	100	100	100	100	70	100	100	40	100	100	100	100	100	100	Death Rate (%) [5]: 100%; Death Rate (%) Myzus persicae ([8]; 12.5 ppm): 80%; Death Rate (%) Myzus persicae ([8]; 50 ppm): 90%
COc1cc(CNc2c([S+]([O-])C(F)(F)F)c(C#N)nn2-c2c(Cl)cc(C(F)(F)F)cc2Cl)ccc1O (stereo not shown) [Compound 64]	100	100	–	100	–	–	–	–	–	–	–	–	–	–	–
N#Cc1nn(-c2c(Cl)cc(C(F)(F)F)cc2Cl)c(NCc2ccccc2Cl)c1SC(F)(F)F [Compound 18]	100	100	100	100	–	–	–	–	–	–	–	–	–	–	–
COc1ccc(CNc2c(SC(F)(F)F)c(C#N)nn2-c2c(Cl)cc(C(F)(F)F)cc2Cl)cc1 [Compound 7]	100	100	100	100	–	–	–	–	–	–	–	–	–	–	–
